Reference: the supplement of paper PMC11208160

assay: recombinant UMI read abundance after kanamycin selection (control-corrected) (log10(CPM+1)); higher = more efficient recombination; extreme values may be limits of the assay; sequences stand for … in AGTGCAGAGAAAATCGGCCAGTTTTCTCTGCCTGCAGTCCGCATGCCGTGGGACCCCTTGGGTTCTAACCTGTTGCCTAGATTTATGCAGCGGACTGCCTTTCTCCCAAAGTGATAAACCGG…AGGTTGGTTTCACT; site = the 11-nt donor
Description: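 Pooled E. coli donor-specificity screen for the IS621 bridge recombinase. Each library member carries a reprogrammed 11-nt donor and a full-length LE bridge RNA expressed in cis from the natural promoter, with a paired donor-binding loop (8-nt LDG + 4-nt RDG) and a target-binding loop fixed to T5. It is co-electroporated with a T5 target plasmid; recombinase is induced with 0.07 mM IPTG and recombinants are selected on kanamycin. UMIs are counted as CPM, averaged over two biological replicates and corrected by the unselected control. Molecule = full bridge RNA written as DNA, built from the T5 scaffold: LDG = donor specificity nt 1-8, RDG = reverse complement of nt 8-11.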
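Note: IS621 bridge recombinase in Escherichia coli cells against a fixed T5 target plasmid.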

First: ACAGTATCATGGACCGGTTTTCCCGGTAATCCGTATTTGCA (site ACATGATCTTG)
Second: ACAGTATCATGGACCGGTTTTCCCGGTAATCCGTATTTGCA (site ACATTACCTTG)
The “recombinant UMI read abundance (log10)” value of the first is higher: 1.29 for the first, 0 for the second.

Going from “ACAGTATCATGGACCGGTTTTCCCGGTAATCCGTATTTGCA (site ACATTATCTGG)” to “ACAGTATCATGGACCGGTTTTCCCGGTAATCCGTATTTGCA (site ACATTATCTTG)”, the “recombinant UMI read abundance (log10)” value rises from 0 to 1.22.

Compared with “ACAGTATCATGGACCGGTTTTCCCGGTAATCCGTATTTGCA (site ACATTATCTTT)”, “ACAGTATCATGGACCGGTTTTCCCGGTAATCCGTATTTGCA (site ACATTGTCTTG)” is higher in “recombinant UMI read abundance (log10)” value: 0.0113 for the first, 1.03 for the second.

First: ACAGTATCATGGACCGGTTTTCCCGGTAATCCGTATTTGCA (site ACCATATCTTG)
Second: ACAGTATCATGGACCGGTTTTCCCGGTAATCCGTATTTGCA (site ACCGAATCTTG)
The “recombinant UMI read abundance (log10)” value of the first is higher: 1.91 for the first, 0 for the second.

“ACAGTATCATGGACCGGTTTTCCCGGTAATCCGTATTTGCA (site ACCGTAACTTG)” and “ACAGTATCATGGACCGGTTTTCCCGGTAATCCGTATTTGCA (site ACCGTATCTAG)” are within 0.2 log units of each other in “recombinant UMI read abundance (log10)” value: 0.0063 for the first, 0.0104 for the second.

Compared with “ACAGTATCATGGACCGGTTTTCCCGGTAATCCGTATTTGCA (site ACCGTATCTTC)”, “ACAGTATCATGGACCGGTTTTCCCGGTAATCCGTATTTGCA (site ACCGTATCTTG)” is higher in “recombinant UMI read abundance (log10)” value: 0.00762 for the first, 1.82 for the second.

Compared with “ACAGTATCATGGACCGGTTTTCCCGGTAATCCGTATTTGCA (site ACCGTCTCTTG)”, “ACAGTATCATGGACCGGTTTTCCCGGTAATCCGTATTTGCA (site ACGCTATCTTG)” is lower in “recombinant UMI read abundance (log10)” value: 1.39 for the first, 1.16 for the second.

“ACAGTATCATGGACCGGTTTTCCCGGTAATCCGTATTTGCA (site ACGGCATCTTG)” and “ACAGTATCATGGACCGGTTTTCCCGGTAATCCGTATTTGCA (site ACGGTAGCTTG)” are within 0.2 log units of each other in “recombinant UMI read abundance (log10)” value: 0 for the first, 0.0044 for the second.

“ACAGTATCATGGACCGGTTTTCCCGGTAATCCGTATTTGCA (site ACGGTATCTCG)” and “ACAGTATCATGGACCGGTTTTCCCGGTAATCCGTATTTGCA (site ACGGTATCTTA)” are within 0.2 log units of each other in “recombinant UMI read abundance (log10)” value: 0.00452 for the first, 0.00481 for the second.

“ACAGTATCATGGACCGGTTTTCCCGGTAATCCGTATTTGCA (site ACGGTATCTTG)” and “ACAGTATCATGGACCGGTTTTCCCGGTAATCCGTATTTGCA (site ACGGTTTCTTG)” are within 0.2 log units of each other in “recombinant UMI read abundance (log10)” value: 0.0156 for the first, 0.0105 for the second.

“ACAGTATCATGGACCGGTTTTCCCGGTAATCCGTATTTGCA (site ACTGGATCTTG)” and “ACAGTATCATGGACCGGTTTTCCCGGTAATCCGTATTTGCA (site ACTGTACCTTG)” are the same in “recombinant UMI read abundance (log10)” value: 0 for the first, 0 for the second.

First: ACAGTATCATGGACCGGTTTTCCCGGTAATCCGTATTTGCA (site ACTGTATCTGG)
Second: ACAGTATCATGGACCGGTTTTCCCGGTAATCCGTATTTGCA (site ACTGTATCTTG)
The “recombinant UMI read abundance (log10)” value of the first is lower: 0.00893 for the first, 2.31 for the second.

First: ACAGTATCATGGACCGGTTTTCCCGGTAATCCGTATTTGCA (site ACTGTATCTTT)
Second: ACAGTATCATGGACCGGTTTTCCCGGTAATCCGTATTTGCA (site ACTGTGTCTTG)
The “recombinant UMI read abundance (log10)” value of the first is lower: 0.00405 for the first, 1.26 for the second.

Compared with “ACAGTATCATGGACCGGTTTTCCCGGTAATCCGTATTTGCA (site ACTTTATCTTG)”, “ACAGTATCATGGACCGGTTTTCCCGGTAATCCGTATTTGCA (site AGAGGATCTTG)” is lower in “recombinant UMI read abundance (log10)” value: 1.44 for the first, 0.0328 for the second.

“ACAGTATCATGGACCGGTTTTCCCGGTAATCCGTATTTGCA (site AGAGTACCTTG)” and “ACAGTATCATGGACCGGTTTTCCCGGTAATCCGTATTTGCA (site AGAGTATCTGG)” are within 0.2 log units of each other in “recombinant UMI read abundance (log10)” value: 0 for the first, 0.0344 for the second.

Compared with “ACAGTATCATGGACCGGTTTTCCCGGTAATCCGTATTTGCA (site AGAGTATCTTG)”, “ACAGTATCATGGACCGGTTTTCCCGGTAATCCGTATTTGCA (site AGAGTATCTTT)” is lower in “recombinant UMI read abundance (log10)” value: 2.46 for the first, 0.0042 for the second.

“ACAGTATCATGGACCGGTTTTCCCGGTAATCCGTATTTGCA (site AGAGTGTCTTG)” and “ACAGTATCATGGACCGGTTTTCCCGGTAATCCGTATTTGCA (site AGATTATCTTG)” are within 0.2 log units of each other in “recombinant UMI read abundance (log10)” value: 1.6 for the first, 1.58 for the second.

Compared with “ACAGTATCATGGACCGGTTTTCCCGGTAATCCGTATTTGCA (site AGTGTATCTTG)”, “ACAGTATCATGGACCGGTTTTCCCGGTAATCCGTATTTGCA (site ATACTATCTTG)” is lower in “recombinant UMI read abundance (log10)” value: 1.45 for the first, 1.12 for the second.

Compared with “ACAGTATCATGGACCGGTTTTCCCGGTAATCCGTATTTGCA (site ATAGCATCTTG)”, “ACAGTATCATGGACCGGTTTTCCCGGTAATCCGTATTTGCA (site ATAGTAGCTTG)” is lower in “recombinant UMI read abundance (log10)” value: 1.83 for the first, 0.354 for the second.

“ACAGTATCATGGACCGGTTTTCCCGGTAATCCGTATTTGCA (site ATAGTATCTCG)” and “ACAGTATCATGGACCGGTTTTCCCGGTAATCCGTATTTGCA (site ATAGTATCTTA)” are within 0.2 log units of each other in “recombinant UMI read abundance (log10)” value: 0.0911 for the first, 0 for the second.

Going from “ACAGTATCATGGACCGGTTTTCCCGGTAATCCGTATTTGCA (site ATAGTATCTTG)” to “ACAGTATCATGGACCGGTTTTCCCGGTAATCCGTATTTGCA (site ATAGTTTCTTG)”, the “recombinant UMI read abundance (log10)” value falls from 2.04 to 0.0207.

First: ACAGTATCATGGACCGGTTTTCCCGGTAATCCGTATTTGCA (site ATGGTATCTTG)
Second: ACAGTATCATGGACCGGTTTTCCCGGTAATCCGTATTTGCA (site CCAGGATCTTG)
The “recombinant UMI read abundance (log10)” value of the first is higher: 1.7 for the first, 0.811 for the second.

First: ACAGTATCATGGACCGGTTTTCCCGGTAATCCGTATTTGCA (site CCAGTACCTTG)
Second: ACAGTATCATGGACCGGTTTTCCCGGTAATCCGTATTTGCA (site CCAGTATCTGG)
The “recombinant UMI read abundance (log10)” value of the first is lower: 0.0123 for the first, 0.613 for the second.

First: ACAGTATCATGGACCGGTTTTCCCGGTAATCCGTATTTGCA (site CCAGTATCTTG)
Second: ACAGTATCATGGACCGGTTTTCCCGGTAATCCGTATTTGCA (site CCAGTATCTTT)
The “recombinant UMI read abundance (log10)” value of the first is higher: 2.71 for the first, 0.00394 for the second.

First: ACAGTATCATGGACCGGTTTTCCCGGTAATCCGTATTTGCA (site CCAGTGTCTTG)
Second: ACAGTATCATGGACCGGTTTTCCCGGTAATCCGTATTTGCA (site CCATTATCTTG)
The “recombinant UMI read abundance (log10)” value of the first is lower: 1.8 for the first, 2.31 for the second.

Going from “ACAGTATCATGGACCGGTTTTCCCGGTAATCCGTATTTGCA (site CCTGTATCTTG)” to “ACAGTATCATGGACCGGTTTTCCCGGTAATCCGTATTTGCA (site CGAGTATCTTG)”, the “recombinant UMI read abundance (log10)” value falls from 2.37 to 1.36.

Compared with “ACAGTATCATGGACCGGTTTTCCCGGTAATCCGTATTTGCA (site GAAGTATCTTG)”, “ACAGTATCATGGACCGGTTTTCCCGGTAATCCGTATTTGCA (site GCAATATCTTG)” is lower in “recombinant UMI read abundance (log10)” value: 2.82 for the first, 1.63 for the second.

Compared with “ACAGTATCATGGACCGGTTTTCCCGGTAATCCGTATTTGCA (site GCAGAATCTTG)”, “ACAGTATCATGGACCGGTTTTCCCGGTAATCCGTATTTGCA (site GCAGTAACTTG)” is lower in “recombinant UMI read abundance (log10)” value: 1.47 for the first, 0 for the second.

“ACAGTATCATGGACCGGTTTTCCCGGTAATCCGTATTTGCA (site GCAGTATCTAG)” and “ACAGTATCATGGACCGGTTTTCCCGGTAATCCGTATTTGCA (site GCAGTATCTTC)” are within 0.2 log units of each other in “recombinant UMI read abundance (log10)” value: 0.0509 for the first, 0.00944 for the second.

Compared with “ACAGTATCATGGACCGGTTTTCCCGGTAATCCGTATTTGCA (site GCAGTATCTTG)”, “ACAGTATCATGGACCGGTTTTCCCGGTAATCCGTATTTGCA (site GCAGTCTCTTG)” is lower in “recombinant UMI read abundance (log10)” value: 2.41 for the first, 0.292 for the second.

First: ACAGTATCATGGACCGGTTTTCCCGGTAATCCGTATTTGCA (site GCCGTATCTTG)
Second: ACAGTATCATGGACCGGTTTTCCCGGTAATCCGTATTTGCA (site TCACTATCTTG)
The “recombinant UMI read abundance (log10)” value of the first is higher: 1.88 for the first, 0.822 for the second.

Going from “ACAGTATCATGGACCGGTTTTCCCGGTAATCCGTATTTGCA (site TCAGCATCTTG)” to “ACAGTATCATGGACCGGTTTTCCCGGTAATCCGTATTTGCA (site TCAGTAGCTTG)”, the “recombinant UMI read abundance (log10)” value falls from 2.37 to 0.0987.

“ACAGTATCATGGACCGGTTTTCCCGGTAATCCGTATTTGCA (site TCAGTATCTCG)” and “ACAGTATCATGGACCGGTTTTCCCGGTAATCCGTATTTGCA (site TCAGTATCTTA)” are within 0.2 log units of each other in “recombinant UMI read abundance (log10)” value: 0.00474 for the first, 0 for the second.

Compared with “ACAGTATCATGGACCGGTTTTCCCGGTAATCCGTATTTGCA (site TCAGTATCTTG)”, “ACAGTATCATGGACCGGTTTTCCCGGTAATCCGTATTTGCA (site TCAGTTTCTTG)” is lower in “recombinant UMI read abundance (log10)” value: 2.54 for the first, 1.26 for the second.

Compared with “ACAGTATCATGGACCGGTTTTCCCGGTAATCCGTATTTGCA (site TCGGTATCTTG)”, “ACAGTATCATGGACCGGTTTTCCCGGTAATCCGTATTTGCA (site TTAGTATCTTG)” is higher in “recombinant UMI read abundance (log10)” value: 0.0345 for the first, 2.66 for the second.

Going from “ACAGTATCATGGACCGGTTTTCCCGGTAATCCGTATTTGGT (site ACAGTATCTAC)” to “ACAGTATCATGGACCGGTTTTCCCGGTAATCCGTATTTGGT (site ACAGTATCTTG)”, the “recombinant UMI read abundance (log10)” value falls from 2.61 to 0.731.
